From ChEMBL document CHEMBL1287723, “The discovery of new spirocyclic muscarinic M3 antagonists” (Bioorg Med Chem Lett, 2010) come the findings set out here.

In general, IC50 refers to the concentration that inhibits the measured activity by half. By inhibition is commonly meant the drop in the measured response relative to a control, in per cent. Low values mean a response near the control, high ones a response far below the control. What is called microsomal CLint is a measure of how fast metabolising enzymes remove a compound, apart from limits set by blood flow. Read a high microsomal CLint as rapid turnover. The term logD denotes lipophilicity at a set pH, counting ionised and neutral species.

Data set [1] deals with T1, Muscarinic acetylcholine receptor M2 (Homo sapiens, UniProt P08172).
T1 sequence (P08172 whole entry): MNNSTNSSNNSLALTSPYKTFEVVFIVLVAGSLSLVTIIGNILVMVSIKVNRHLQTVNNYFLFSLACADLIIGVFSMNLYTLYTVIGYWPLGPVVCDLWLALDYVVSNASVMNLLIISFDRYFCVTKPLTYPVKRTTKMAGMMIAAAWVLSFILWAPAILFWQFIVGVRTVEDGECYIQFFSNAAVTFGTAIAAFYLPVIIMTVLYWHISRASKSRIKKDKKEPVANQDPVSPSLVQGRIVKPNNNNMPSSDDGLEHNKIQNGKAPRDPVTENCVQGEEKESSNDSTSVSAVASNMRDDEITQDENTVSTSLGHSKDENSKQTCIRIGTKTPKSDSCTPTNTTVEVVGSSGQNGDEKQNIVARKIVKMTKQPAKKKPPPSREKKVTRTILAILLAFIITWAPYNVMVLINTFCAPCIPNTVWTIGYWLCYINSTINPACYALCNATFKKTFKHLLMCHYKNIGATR
Description: Displacement of [3H]NMS from human muscarinic M2 receptor expressed in CHO-K1 cells after 16 hrs by scintillation proximity assay. It is filed as cell-based. A general note: In a radioligand displacement assay an active substance lowers the binding of a labelled ligand.

In data set [2] the target is T2, Muscarinic acetylcholine receptor M3 (Homo sapiens, UniProt P20309). Description: Displacement of [3H]NMS from human muscarinic M3 receptor expressed in CHO-K1 cells after 16 hrs by scintillation proximity assay. It is filed as cell-based.
Target sequence in this assay (P20309 whole entry): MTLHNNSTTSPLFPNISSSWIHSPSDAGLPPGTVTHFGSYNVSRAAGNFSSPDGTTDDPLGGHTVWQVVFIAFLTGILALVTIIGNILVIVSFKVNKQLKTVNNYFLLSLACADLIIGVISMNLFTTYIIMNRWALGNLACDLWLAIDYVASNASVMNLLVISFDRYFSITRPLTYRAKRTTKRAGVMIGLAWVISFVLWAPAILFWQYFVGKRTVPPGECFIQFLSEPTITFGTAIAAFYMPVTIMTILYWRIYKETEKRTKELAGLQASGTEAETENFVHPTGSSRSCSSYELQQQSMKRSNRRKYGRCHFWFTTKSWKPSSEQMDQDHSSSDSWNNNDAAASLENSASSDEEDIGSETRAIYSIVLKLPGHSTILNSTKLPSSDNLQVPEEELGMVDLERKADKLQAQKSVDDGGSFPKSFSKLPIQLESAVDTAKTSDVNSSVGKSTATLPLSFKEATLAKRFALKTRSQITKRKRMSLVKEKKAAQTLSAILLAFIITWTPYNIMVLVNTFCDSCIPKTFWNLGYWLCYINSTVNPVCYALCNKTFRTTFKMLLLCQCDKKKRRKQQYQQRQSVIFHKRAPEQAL
Data set [3] addresses T3, Muscarinic acetylcholine receptor M1 (Homo sapiens, UniProt P11229).
T3 sequence (P11229 whole entry): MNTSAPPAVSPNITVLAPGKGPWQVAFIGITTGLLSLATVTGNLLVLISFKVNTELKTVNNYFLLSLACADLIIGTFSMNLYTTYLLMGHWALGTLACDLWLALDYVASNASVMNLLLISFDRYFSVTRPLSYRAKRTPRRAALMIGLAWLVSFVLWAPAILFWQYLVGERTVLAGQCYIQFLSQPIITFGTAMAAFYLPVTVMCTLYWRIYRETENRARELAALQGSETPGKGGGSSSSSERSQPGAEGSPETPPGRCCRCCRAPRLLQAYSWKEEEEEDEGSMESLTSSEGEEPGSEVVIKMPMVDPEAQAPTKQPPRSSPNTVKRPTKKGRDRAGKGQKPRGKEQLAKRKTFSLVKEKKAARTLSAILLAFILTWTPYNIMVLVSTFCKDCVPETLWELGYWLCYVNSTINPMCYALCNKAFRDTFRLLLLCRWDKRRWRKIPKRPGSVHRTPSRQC
The data set is described as follows: Displacement of [3H]NMS from human muscarinic M1 receptor expressed in CHO-K1 cells after 16 hrs by scintillation proximity assay. It is filed as cell-based.

Data set [4] deals with T4, Muscarinic acetylcholine receptor M5 (Homo sapiens, UniProt P08912).
T4 sequence (P08912 whole entry): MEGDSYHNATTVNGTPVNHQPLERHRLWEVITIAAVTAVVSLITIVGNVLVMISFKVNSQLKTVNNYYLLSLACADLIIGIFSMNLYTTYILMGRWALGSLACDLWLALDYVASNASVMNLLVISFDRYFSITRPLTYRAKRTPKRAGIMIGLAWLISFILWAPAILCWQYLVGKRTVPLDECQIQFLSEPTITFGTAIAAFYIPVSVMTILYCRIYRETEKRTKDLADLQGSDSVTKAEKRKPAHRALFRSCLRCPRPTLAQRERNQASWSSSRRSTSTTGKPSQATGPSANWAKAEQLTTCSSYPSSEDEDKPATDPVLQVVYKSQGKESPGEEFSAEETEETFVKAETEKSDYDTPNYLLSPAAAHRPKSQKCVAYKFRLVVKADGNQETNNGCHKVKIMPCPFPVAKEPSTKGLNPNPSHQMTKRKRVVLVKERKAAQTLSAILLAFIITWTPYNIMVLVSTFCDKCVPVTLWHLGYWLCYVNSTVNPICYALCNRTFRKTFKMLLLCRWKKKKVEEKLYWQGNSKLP
The data set is described as follows: Displacement of [3H]NMS from human muscarinic M5 receptor expressed in CHO-K1 cells after 16 hrs by scintillation proximity assay. It is filed as cell-based.

The target in data set [5] is T5, Muscarinic acetylcholine receptor M4 (Homo sapiens, UniProt P08173).
T5 sequence (P08173 whole entry): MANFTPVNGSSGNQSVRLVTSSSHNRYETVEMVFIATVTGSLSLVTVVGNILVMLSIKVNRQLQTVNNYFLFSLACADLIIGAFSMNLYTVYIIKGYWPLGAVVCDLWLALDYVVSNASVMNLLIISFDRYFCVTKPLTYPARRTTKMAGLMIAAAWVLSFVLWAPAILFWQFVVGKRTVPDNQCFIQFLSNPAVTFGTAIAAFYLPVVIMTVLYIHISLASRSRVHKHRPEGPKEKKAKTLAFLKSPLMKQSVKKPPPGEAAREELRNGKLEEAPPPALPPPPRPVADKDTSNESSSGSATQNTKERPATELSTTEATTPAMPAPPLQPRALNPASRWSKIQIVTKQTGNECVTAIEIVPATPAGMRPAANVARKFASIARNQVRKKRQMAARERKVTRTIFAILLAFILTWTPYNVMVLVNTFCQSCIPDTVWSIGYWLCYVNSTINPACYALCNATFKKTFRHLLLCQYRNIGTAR
Description: Displacement of [3H]NMS from human muscarinic M4 receptor expressed in CHO-K1 cells after 16 hrs by scintillation proximity assay. It is filed as cell-based.

The target in data set [6] is T2, Muscarinic acetylcholine receptor M3. The data set is described as follows: Displacement of [3H]NMS from human muscarinic M3 receptor expressed in CHO-K1 cells at 1 uM after 16 hrs by scintillation proximity assay. It is filed as cell-based.
Target sequence in this assay (P20309 whole entry, looked up): as the sequence (P20309 whole entry) above
Data set [7] concerns Hepatocyte. The data set is described as follows: Clearance in rat hepatocytes. It is filed as ADME, cell-based, Liver.
A short description of data set [8]: Clearance in human microsomes. It is filed as ADME, Microsome.
A short description of data set [9]: Lipophilicity, log D of the compound. It is filed as physicochemical. The following applies: octanol/water.

In the case of `O=C(c1ccccc1)N1CCC2(CCN(Cc3cccc(Cl)c3)CC2)CC1`, the IC50 in data set [1] is 3.98 nM; in data set [2], 100 nM.

Take `Cc1ccc(C(=O)N2CCOC3(CCN(Cc4ccc(Cl)cc4)CC3)C2)o1`: the IC50 in data set [1] and in data set [2] was 50.1 nM each time.

Turning to `O=C(c1ccc2occc2c1)N1CCOC2(CCN(Cc3ccc(Cl)cc3)CC2)C1`, the IC50 in [1] and in data set [2] was 31.6 nM in each case.

On to `O=C(c1cccs1)N1CCOC2(CCN(Cc3ccc(Cl)cc3)CC2)C1`, for which the figures for the concentration for half-maximal inhibition (IC50) in [1] and in data set [2] were 20 nM and 63.1 nM, respectively.

Take `Cc1nc(C(=O)N2CCCC3(CCN(Cc4ccccc4)CC3)C2)cs1`: the 50% inhibitory concentration (IC50) in [1] and in [2] was more than 1000 nM throughout.

Regarding `O=C(c1cccnc1)N1CCC2(CCN(Cc3ccccc3)CC2)CC1`, the values for the IC50 in data set [1] and in data set [2] were 79.4 nM and more than 1000 nM, respectively.

Turning to `CC(C)(C)c1nc(C(=O)N2CCOC3(CCN(Cc4ccc(Cl)cc4)CC3)C2)cs1`, the 50% inhibitory concentration (IC50) in data set [1] and in data set [2] was more than 1000 nM throughout.

As to `Cc1nc(C(=O)N2CCOC3(CCN(Cc4cccc(Cl)c4)CC3)C2)cs1`, the IC50 in data set [1] and in data set [2] was 1.26 nM each time.

Regarding `CC(C)c1nc(C(=O)N2CCOC3(CCN(Cc4ccccc4)CC3)C2)cs1`, the half-maximal inhibitory concentration (IC50) in data set [1] is 15.8 nM; in [2] it was 3.98 nM.

On to `O=C(c1ccon1)N1CCOC2(CCN(Cc3ccc(Cl)cc3)CC2)C1`, for which the half-maximal inhibitory concentration (IC50) in data set [1] is 79.4 nM; in data set [2] it was 398 nM.

As to `O=C(c1cscn1)N1CCOC2(CCN(Cc3ccc(Cl)cc3)CC2)C1`, the 50% inhibitory concentration (IC50) in [1] was 50.1 nM; in data set [2] it was 158 nM.

`O=C(c1ccoc1)N1CCOC2(CCN(Cc3ccc(Cl)cc3)CC2)C1`: the IC50 in data set [1] was 63.1 nM; in data set [2] it was 126 nM.

As to `O=C(c1ccccc1)N1CCC2(CCN(Cc3ccccc3)CC2)CC1`, the half-inhibitory concentration (IC50) in [1] is 6.31 nM; in [2], 126 nM.

Consider `CCOc1ccccc1C(=O)N1CCC2(CCN(Cc3ccccc3)CC2)CC1`, for which the values for the half-maximal inhibitory concentration (IC50) in data set [1] and in data set [2] were 79.4 nM and 794 nM, respectively.

For `CCc1nc(C(=O)N2CCOC3(CCN(Cc4ccc(Cl)cc4)CC3)C2)cs1`, the IC50 was 12.6 nM in data set [1] and 15.8 nM in [2].

Turning to `O=C(c1cccnc1)N1CCOC2(CCN(Cc3ccc(Cl)cc3)CC2)C1`, in data set [2], the concentration for half-maximal inhibition (IC50) was more than 1000 nM.

With `CC(C)c1nc(C(=O)N2CCOC3(CCN(Cc4ccc(Cl)cc4)CC3)C2)cs1`, the half-maximal inhibitory concentration (IC50) in data set [1] was 31.6 nM; in data set [2], 15.8 nM.

Regarding `O=C(c1ccc(CO)o1)N1CCOC2(CCN(Cc3ccc(Cl)cc3)CC2)C1`, the results for the IC50 in [1] and in [2] were 126 nM and 100 nM, respectively.

`O=C(c1ncccn1)N1CCOC2(CCN(Cc3ccc(Cl)cc3)CC2)C1`: the concentration for half-maximal inhibition (IC50) was 126 nM in data set [1] and 398 nM in data set [2].

Turning to `O=C(O[C@H]1C[N+]2(CCCOc3ccccc3)CCC1CC2)C(O)(c1cccs1)c1cccs1` [ACLIDINIUM BROMIDE], the results for the half-inhibitory concentration (IC50) in data set [3], in data set [4] and in data set [5] were 0.1 nM, 0.158 nM and 0.2 nM, respectively.

Regarding `Cc1nc(C(=O)N2CCCC3(CCN(Cc4ccc(Cl)cc4)CC3)C2)cs1`, the half-maximal inhibitory concentration (IC50) in [1] and in data set [2] was more than 1000 nM each time.

Consider `O=C(c1ccco1)N1CCOC2(CCN(Cc3ccc(Cl)cc3)CC2)C1`, for which the half-inhibitory concentration (IC50) in data set [1] is 25.1 nM; in data set [2] it was 63.1 nM.

Regarding `Cc1ccccc1CN1CCC2(CC1)CN(C(=O)c1csc(C(C)C)n1)CCO2`, the values for the half-maximal inhibitory concentration (IC50) in [1] and in data set [2] were 794 nM and 398 nM, respectively.

Turning to `Cc1cccc(CN2CCC3(CC2)CCN(C(=O)c2ccccc2)CC3)c1`, the IC50 in data set [1] is 2.51 nM; in [2] it was 100 nM.

As for `O=C(c1ccco1)N1CCC2(CCN(Cc3ccccc3)CC2)CC1`, the figures for the IC50 in data set [1] and in [2] were 79.4 nM and more than 1000 nM, respectively.

On to `O=C(c1ccccc1)N1CCOC2(CCN(Cc3ccc(Cl)cc3)CC2)C1`, for which the results for the concentration for half-maximal inhibition (IC50) in data set [1] and in [2] were 126 nM and 251 nM, respectively.

The compound `O=C(c1ncccn1)N1CCC2(CCN(Cc3ccccc3)CC2)CC1` had an IC50 in data set [1] of 251 nM. For the same compound, the inhibition in data set [6] was less than 50%.

Turning to `Cc1nc(C(=O)N2CCOC3(CCN(Cc4ccccc4Cl)CC3)C2)cs1`, the IC50 in data set [1] is 3.16 nM; in [2], 7.94 nM.

Take `CC(C)c1nc(C(=O)N2CCOC3(CCN(Cc4cccc(Cl)c4)CC3)C2)cs1`: the IC50 in data set [1] is 10 nM; in [2], 5.01 nM.

`O=C(c1cnsn1)N1CCOC2(CCN(Cc3ccc(Cl)cc3)CC2)C1`: the concentration for half-maximal inhibition (IC50) in data set [1] was 39.8 nM; in data set [2], 200 nM.

As for `Cc1nc(C(=O)N2CCOC3(CCN(Cc4ccc(Cl)cc4)CC3)C2)cs1`, the concentration for half-maximal inhibition (IC50) in data set [1] was 3.16 nM; in data set [2] it was 10 nM. This compound displayed a CL in data set [7] of 47 µL/min/mg. Also, the microsomal CLint in data set [8] stood at 11 µL/min/mg. Besides, the logD in data set [9] amounted to 2.2.

As for `CC(C)c1nc(C(=O)N2CCOC3(CCN(Cc4ccccc4Cl)CC3)C2)cs1`, the figures for the concentration for half-maximal inhibition (IC50) in [1] and in data set [2] were 25.1 nM and 20 nM, respectively.

For `C[N+]1(C)[C@@H]2C[C@@H](OC(=O)C(O)(c3cccs3)c3cccs3)C[C@H]1[C@@H]1O[C@@H]12` [TIOTROPIUM BROMIDE], the results for the IC50 in [4] and in data set [5] were 0.1 nM and 0.0398 nM, respectively.

On to `O=C(c1ccsc1)N1CCC2(CCN(Cc3ccccc3)CC2)CC1`, for which the values for the IC50 in data set [1] and in data set [2] were 15.8 nM and 316 nM, respectively.
